Some test systems named below: RXF 393 renal; NCI-H23 lung; DU-145 prostate; SW-620 colon; EKVX NSCLC; M14 melanoma; CCRF-CEM leukemia; SK-MEL-5 melanoma; A498 renal; LOX IMVI melanoma.
Common to all, as to assay: NCI anticancer screen, dose series, 48 h

Structures are written as SMILES. “And” between values parts separate entries of the source, which are not always exact repeats. Equal entries are not always repeated.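 Cells were grown in 96-well plates and exposed to each compound for 48 hours at five concentrations; endpoints were interpolated linearly between bracketing concentrations, or set to the highest concentration if not reached. The concentration for 50% growth inhibition is given as GI50. At the TGI there is no net growth.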

On to `NS(=O)(=O)c1c(O)c2ccccc2oc1=O`, for which the TGI in the experiment on RXF 393 renal, in the experiment with NCI-H23 lung, in the experiment on DU-145 prostate, in the experiment on SW-620 colon, with EKVX NSCLC and in the experiment on M14 melanoma was above 100 µM in each case. In addition, the TGI in the experiment on CCRF-CEM leukemia, with SK-MEL-5 melanoma, in the experiment with A498 renal and in the experiment on LOX IMVI melanoma was above 100 µM in each case.

As for `CC1=C(C(=O)NNC(=O)C[N+](C)(C)C)CC(C(=O)NNC(=O)C[N+](C)(C)C)=C(C)N1`, the TGI in the experiment with RXF 393 renal, in the experiment on NCI-H23 lung, in the experiment with DU-145 prostate, with SW-620 colon, in the experiment on EKVX NSCLC and in the experiment on M14 melanoma was above 100 µM throughout. The TGI with CCRF-CEM leukemia is 94 µM; in the experiment with SK-MEL-5 melanoma, above 100 µM; in the experiment with A498 renal, above 100 µM; in the experiment on LOX IMVI melanoma, above 100 µM.

Consider `CCOC(=O)c1c(C)n(-c2ccc(C)cc2)c(=O)c2ccccc2c(=O)c2c(=O)ccc(=O)c1=2`, for which the TGI worked out at 41.3 µM in the experiment on RXF 393 renal; 32 µM in the experiment on NCI-H23 lung; 39.3 µM in the experiment with DU-145 prostate; 49.9 µM in the experiment with SW-620 colon; 80 µM with EKVX NSCLC; 42.9 µM in the experiment with M14 melanoma. Moreover, the TGI with CCRF-CEM leukemia is above 100 µM; in the experiment on SK-MEL-5 melanoma, 30.4 µM; in the experiment on LOX IMVI melanoma it was 36.4 µM.

Take `C/C=C(/CCC1NCCc2c1[nH]c1ccccc21)[Si](C)(C)C` (stereo unspecified): the GI50 in the experiment on NCI-H23 lung is 87.1 µM and 11.1 µM. Also, the TGI is > 100 µM and 25.5 µM in the experiment on NCI-H23 lung; > 100 µM and 22.3 µM in the experiment on EKVX NSCLC; > 100 µM and 11.5 µM in the experiment with CCRF-CEM leukemia; > 100 µM and 11.8 µM with SK-MEL-5 melanoma; 72 µM and 23.5 µM in the experiment on A498 renal; 15.2 µM with LOX IMVI melanoma.

For `NC(Cc1cc(I)c(Oc2ccc(O)c(I)c2)c(I)c1)C(=O)O` (stereo unspecified), the TGI in the experiment on RXF 393 renal, with NCI-H23 lung, with DU-145 prostate, with SW-620 colon, in the experiment on EKVX NSCLC and in the experiment with M14 melanoma was above 100 µM throughout. For the same compound, the TGI with SK-MEL-5 melanoma is above 100 µM; in the experiment with A498 renal, 92.6 µM; with LOX IMVI melanoma, above 100 µM.

Turning to `Fc1ccc2c(c1)SC1=Nc3sc4cc(F)ccc4[n+]3CN12`, the TGI in the experiment with RXF 393 renal is 86.8 µM; in the experiment with NCI-H23 lung it was 47.3 µM; in the experiment on DU-145 prostate, above 100 µM; in the experiment with SW-620 colon it was above 100 µM; with EKVX NSCLC, 79 µM; in the experiment on M14 melanoma, above 100 µM. Further, the TGI with SK-MEL-5 melanoma was 28.2 µM; in the experiment with A498 renal, 33.5 µM; with LOX IMVI melanoma, 52.5 µM.

Consider `NCCCCNOCCCN`, for which the TGI in the experiment with RXF 393 renal, with NCI-H23 lung, with DU-145 prostate, with SW-620 colon, in the experiment with EKVX NSCLC and with M14 melanoma was above 100 µM throughout. Also, the TGI with CCRF-CEM leukemia, with SK-MEL-5 melanoma and in the experiment on LOX IMVI melanoma was above 100 µM each time.

For the compound `COC(=O)C1=C(O)C(C(=O)OC)[C@@]2(O)[C@@H](C(=O)OC)[C@H](C)C[C@@H]1[C@@H]2C(=O)OC` (stereo partly specified), the TGI in the experiment on RXF 393 renal was 58.9 µM; in the experiment with NCI-H23 lung, above 100 µM; in the experiment with DU-145 prostate, 50.5 µM; in the experiment with EKVX NSCLC, 69.6 µM; with M14 melanoma, 39.9 µM; with CCRF-CEM leukemia, above 100 µM. Further, the results for the TGI in the experiment with A498 renal and in the experiment on LOX IMVI melanoma were 44.3 µM and above 100 µM, respectively.

Consider `O=c1c(-c2ccccc2)c(SCCCN2CCCCC2)n(-c2ccccc2)c(=S)n1-c1ccccc1`, for which the TGI was 27.7 µM in the experiment on RXF 393 renal; 42.9 µM with NCI-H23 lung; 34.1 µM with DU-145 prostate; 41.9 µM in the experiment on SW-620 colon; above 100 µM with EKVX NSCLC; 50.9 µM with CCRF-CEM leukemia. The figures for the TGI in the experiment with SK-MEL-5 melanoma, in the experiment on A498 renal and with LOX IMVI melanoma were 30.8 µM, 29 µM and 32.4 µM, respectively.

With `CC(C)(CCCCC(C)(C)NC1=NCCO1)NC1=NCCO1`, the TGI in the experiment with RXF 393 renal, in the experiment on NCI-H23 lung, with DU-145 prostate, in the experiment with SW-620 colon, in the experiment on EKVX NSCLC and with M14 melanoma was above 10 µM throughout. For the same compound, the TGI in the experiment with CCRF-CEM leukemia, in the experiment on SK-MEL-5 melanoma, in the experiment on A498 renal and in the experiment with LOX IMVI melanoma was above 10 µM each time.

Turning to `C(=C\c1cc[n+](CCc2ccccc2)cc1)/c1ccccc1`, the TGI with RXF 393 renal is above 100 µM; in the experiment with NCI-H23 lung, 43.7 µM; with DU-145 prostate, above 100 µM; in the experiment on SW-620 colon, 32.3 µM; in the experiment on EKVX NSCLC it was above 100 µM; with M14 melanoma, 31.5 µM. The TGI was found to be 42.5 µM in the experiment with CCRF-CEM leukemia, 5.73 µM in the experiment on SK-MEL-5 melanoma and 37 µM in the experiment on LOX IMVI melanoma.

Take `O=c1c2ccccc2nc2n1CCc1c-2[nH]c2ccccc12`: the TGI in the experiment with RXF 393 renal is 34.5 µM; with NCI-H23 lung, 37.4 µM; in the experiment on DU-145 prostate, 33.5 µM; in the experiment with SW-620 colon, 52.9 µM; with EKVX NSCLC, 60.5 µM; with M14 melanoma it was 32 µM. Moreover, the TGI was above 100 µM in the experiment on CCRF-CEM leukemia and 28.6 µM with SK-MEL-5 melanoma. For the same compound, the GI50 with CCRF-CEM leukemia is 18.9 µM.

Regarding `O=[N+]([O-])c1ccc(N/N=C\c2cc(Br)ccc2O)nc1`, the GI50 with RXF 393 renal is 2.17 µM; in the experiment on NCI-H23 lung, 1.23 µM; in the experiment on DU-145 prostate it was 912 nM; in the experiment on SW-620 colon it was 934 nM; in the experiment on EKVX NSCLC, 2400 nM; in the experiment with M14 melanoma, 1220 nM. In addition, the GI50 was 0.314 µM in the experiment with CCRF-CEM leukemia, 1.32 µM with SK-MEL-5 melanoma, 6.11 µM with A498 renal and 0.472 µM with LOX IMVI melanoma. Moreover, the TGI in the experiment on RXF 393 renal is 9.95 µM; with NCI-H23 lung, 10.9 µM; in the experiment on DU-145 prostate it was 5.77 µM; with SW-620 colon, above 100 µM; with EKVX NSCLC it was 7.69 µM; in the experiment on M14 melanoma it was 4.87 µM. Besides, the TGI is above 100 µM in the experiment with CCRF-CEM leukemia, 10.9 µM with SK-MEL-5 melanoma, above 100 µM with A498 renal and 2.37 µM in the experiment with LOX IMVI melanoma.

For `COC(=O)C(C)NP(=O)(OCc1cccc(Cn2cnc3c(N)ncnc32)c1)Oc1ccccc1` (stereo unspecified), the GI50 in the experiment on RXF 393 renal is 27.8 µM; with NCI-H23 lung, 66 µM; in the experiment on DU-145 prostate, above 100000 nM; in the experiment on SW-620 colon it was above 100000 nM; with EKVX NSCLC, above 100000 nM; with CCRF-CEM leukemia it was 50.5 µM. The GI50 with SK-MEL-5 melanoma is 54.1 µM; in the experiment on A498 renal, above 100 µM; in the experiment on LOX IMVI melanoma, 48.9 µM. Moreover, the TGI in the experiment with RXF 393 renal, with NCI-H23 lung, with DU-145 prostate, with SW-620 colon, in the experiment on EKVX NSCLC and in the experiment with CCRF-CEM leukemia was above 100 µM each time. For the same compound, the TGI with SK-MEL-5 melanoma, with A498 renal and in the experiment with LOX IMVI melanoma was above 100 µM throughout.

As to `NCCc1ccc(S(=O)(=O)O)cc1[N+](=O)[O-]`, the TGI in the experiment with RXF 393 renal, in the experiment on NCI-H23 lung, in the experiment on DU-145 prostate, with SW-620 colon, with EKVX NSCLC and with M14 melanoma was above 100 µM each time. Further, the TGI with CCRF-CEM leukemia, with SK-MEL-5 melanoma, in the experiment with A498 renal and with LOX IMVI melanoma was above 100 µM each time.

For `COc1cc(CCN)c(OC)c(OC)c1`, the TGI in the experiment with RXF 393 renal, in the experiment with NCI-H23 lung, with DU-145 prostate, in the experiment with SW-620 colon, in the experiment with EKVX NSCLC and in the experiment on M14 melanoma was above 100 µM each time. The TGI with CCRF-CEM leukemia was above 100 µM; with SK-MEL-5 melanoma, 54.9 µM; in the experiment with A498 renal, above 100 µM; with LOX IMVI melanoma, above 100 µM.

For the compound `CC(C)C(=O)Cc1ccc2ccccc2n1`, the TGI in the experiment on RXF 393 renal, in the experiment on NCI-H23 lung, with DU-145 prostate, in the experiment on SW-620 colon, with EKVX NSCLC and in the experiment on M14 melanoma was above 100 µM throughout. For the same compound, the TGI in the experiment on CCRF-CEM leukemia, with SK-MEL-5 melanoma, with A498 renal and in the experiment on LOX IMVI melanoma was above 100 µM each time.

The values above are taken from PubChem BioAssay (NCI).
